The source made the active and inactive calls.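 The calls were made as follows: active = GFP ratio vs DMSO below 0.65 in a strain, using the primary screen cutoff set for that strain's protein target; inactive = the rest.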
Columns and labels:
Experiment in all cases: GFP reporter expression in TORC1-bypass yeast, mechanism study for yeast TOR pathway modulator project, S. cerevisiae, TORC1 bypass vs wild-type strains (AID 504479)
Conditions in all cases: fluorescence ratio vs DMSO, at 10 µM
BY4741 = test system: BY4741
YBR084C-A = test system: YBR084C-A
YCL025C = test system: YCL025C
YCR005C = test system: YCR005C
YKL103C = test system: YKL103C
YNL142W = test system: YNL142W
[1] = RPL19A-GFP in TORC1 bypass strain, stronger effect = lower value
[2] = AGP1-GFP in TORC1 bypass strain, stronger effect = higher value
[3] = CIT2-GFP in TORC1 bypass strain, stronger effect = higher value
[4] = LAP4-GFP in TORC1 bypass strain, stronger effect = higher value
[5] = MEP2-GFP in TORC1 bypass strain, stronger effect = higher value

SMILES | GFP ratio vs DMSO (BY4741) | GFP ratio vs DMSO (YBR084C-A; [1]) | GFP ratio vs DMSO (YBR084C-A) | GFP ratio vs DMSO (YCL025C; [2]) | GFP ratio vs DMSO (YCL025C) | GFP ratio vs DMSO (YCR005C; [3]) | GFP ratio vs DMSO (YCR005C) | GFP ratio vs DMSO (YKL103C; [4]) | GFP ratio vs DMSO (YKL103C) | GFP ratio vs DMSO (YNL142W; [5]) | GFP ratio vs DMSO (YNL142W)
O=C(OCn1ncc(Br)c(Br)c1=O)c1c(F)cccc1F | 0.824 (inactive) | 1.05 | 1 (inactive) | 0.715 | 0.903 (inactive) | 0.891 | 1.02 (inactive) | 1.37 | 1.86 | 0.876 | 0.897 (inactive)
COc1ccc(/C=C/C(=O)NC(=S)NNC(=O)c2cnccn2)cc1 | 0.962 (inactive) | 0.981 | 0.94 (inactive) | 0.694 | 0.807 (inactive) | 0.87 | 1.03 (inactive) | 1.18 | 1.51 | 1.03 | 1.14 (inactive)
CCCOc1ccc(C(=O)NNC(=S)NC(=O)CC)cc1 | 1.32 (inactive) | 1.36 | 1.33 (inactive) | 0.969 | 1.17 (inactive) | 0.905 | 0.994 (inactive) | 1.92 | 2.96 | 1.3 | 1.24 (inactive)
O=[N+]([O-])c1cc(S(=O)(=O)C(F)(F)F)ccc1Sc1nc2ccccc2s1 | 0.811 (inactive) | 0.993 | 0.985 (inactive) | 0.722 | 0.876 (inactive) | 0.848 | 0.985 (inactive) | 1.22 | 1.71 | 0.92 | 0.887 (inactive)
O=C1ON=C(c2ccccc2)/C1=C\c1ccco1 | 0.875 (inactive) | 0.897 | 0.947 (inactive) | 0.759 | 1.01 (inactive) | 0.826 | 1.1 (inactive) | 1.26 | 1.97 | 0.993 | 1.1 (inactive)
Cc1ccc(C(c2cc(Cl)c3cccnc3c2O)N2CCN(C)CC2)cc1 (stereo not given) | 0.736 (inactive) | 0.949 | 0.938 (inactive) | 0.652 | 0.76 (inactive) | 0.583 | 0.808 (inactive) | 1.23 | 1.63 | 1.03 | 0.862 (inactive)
Cc1cc(C(=O)Nc2nc(-c3ccccn3)cs2)ccc1[N+](=O)[O-] | 0.896 (inactive) | 0.905 | 0.985 (inactive) | 1.03 | 1.05 (inactive) | 0.839 | 0.907 (inactive) | 0.998 | 1.02 (inactive) | 1.04 | 0.972 (inactive)
N/C(Cc1ccc(Cl)cc1)=N\OC(=O)c1cccc2ccccc12 | 1.38 (inactive) | 0.818 | 0.76 (inactive) | 0.679 | 0.833 (inactive) | 0.748 | 2.21 | 0.525 | 1.24 (inactive) | 1.05 | 1.23 (inactive)
O=[N+]([O-])c1cc(O)c2ncccc2c1 | 1.5 (inactive) | 0.993 | 1.01 (inactive) | 0.739 | 0.763 (inactive) | 0.869 | 0.806 (inactive) | 1.29 | 1.4 (inactive) | 0.918 | 0.698 (inactive)
O=[N+]([O-])c1ccc(O)c2ncccc12 | 1.4 (inactive) | 1.18 | 1.23 (inactive) | 0.99 | 1.14 (inactive) | 0.748 | 1.27 (inactive) | 1.88 | 3.01 | 1.06 | 1.21 (inactive)

From PubChem BioAssay AID504479 (NMMLSC, 2011)
